According to US12534444B2, “Treatment of cancer/inhibition of metastasis” (Celex Oncology Innovations Limited, priority 2010, dated 2026):

Test system: MDA-MB-231 cells
Assay: Single-cell adhesion assay (SCAMA, detachment negative pressure)
Format: cell-based, human
Protocol: FIG. 4 is a schematic illustration of the single-cell adhesion measurement apparatus (SCAMA) first described in the paper by Palmer et al. (2008). Human breast cancer cells from the MDA-MB-231 cell line were plated at a density of 2.5×10^4 cells/ml and left to settle in a cell culture dish 401 for 48 hours prior to measurements. Medium was removed and 2 ml of the drug under study was applied for 10 minutes. Adhesion was measured using a glass micropipette 402 connected to a vacuum pump 403 via plastic tubing 404. The tip of the micropipette was drawn to about 20 μm (range, 17-24 μm) tip diameter. The vacuum pump was used to create negative pressure inside a reservoir 405 so that the negative pressure could be applied to the tip of the micropipette by pressing the thumb to the open end of a sealable T-piece 406. […] The pressure was measured using a digital manometer 409 connected to a computer 410 via a RS232 cable 411. Using a micromanipulator 412, the micropipette 402 was positioned on the periphery of a single cell. […] The negative pressure required to detach the cell was recorded on the computer as a pressure spike. The peak of the spike (“detachment negative pressure” (DNP)) was used as a measure of the cell's adhesiveness. Using this technique, several recordings could be made from a single dish within minutes. […] In order to test for the reversibility of a given effect, the pharmacological agent was washed off, fresh medium was added and the plate was incubated for a further 10 minutes prior to re-measurement. Each treatment was carried out on at least two dishes of cells, at least 100 cells per dish were measured, and the experiment was repeated three times (with corresponding controls). In the single cell adhesion experiments, hypoxia was induced chemically by application of hydrogen peroxide (1-500 μM) for 24 hours.

Question: What does the source list for `COc1ccccc1OCC(O)CN1CCN(CC(=O)Nc2c(C)cccc2C)CC1` (centres unmarked) [ranolazine]?
Answer: ADHESION (Hypoxia (chemically induced, hydrogen peroxide 24 hours), 0.1 μM): increased; ADHESION (Hypoxia (chemically induced, hydrogen peroxide 24 hours), 1 μM): continued to increase; ADHESION (Hypoxia (chemically induced, hydrogen peroxide 24 hours), 1 μM, listed as RANOLAZINE): increased; ADHESION (Hypoxia (chemically induced, hydrogen peroxide 24 hours), 10 μM): continued to increase; ADHESION (Hypoxia (chemically induced, hydrogen peroxide 24 hours), 10 μM, listed as RANOLAZINE): decreased; ADHESION (Hypoxia (chemically induced, hydrogen peroxide 24 hours), 100 μM): continued to increase; ADHESION (Hypoxia (chemically induced, hydrogen peroxide 24 hours), 100 μM, listed as RANOLAZINE): no benefit; ADHESION (Normoxia, 0.1 μM): no effect; ADHESION (Normoxia, 0.5 μM): increased; ADHESION (Normoxia, 1 μM): increased; ADHESION (Normoxia, 10 μM): increased; ADHESION (Normoxia, 20 μM): increased; ADHESION (Normoxia, 100 μM): increased; effect on adhesion in hypoxia compared with normoxia (before convergence at the higher drug concentrations): approximately 10 fold
